According to ChEMBL document CHEMBL5576076, “Bioisosteric heterocyclic analogues of natural bioactive flavonoids by scaffold-hopping approaches: State-of-the-art and perspectives in medicinal chemistry” (Bioorg Med Chem, 2024):
≈ marks a conversion by molar mass, not a printed value.

Columns and labels:
[1] = biological target: Dual specificity mitogen-activated protein kinase kinase 1 (Homo sapiens, UniProt Q02750); assay: Inhibition of RAF1- induced activation of MEK (unknown origin) signalling pathway assessed as reduction in MEK1 phosphorylation
Dual specificity mitogen-activated protein kinase kinase 1, sequence (Q02750 whole entry): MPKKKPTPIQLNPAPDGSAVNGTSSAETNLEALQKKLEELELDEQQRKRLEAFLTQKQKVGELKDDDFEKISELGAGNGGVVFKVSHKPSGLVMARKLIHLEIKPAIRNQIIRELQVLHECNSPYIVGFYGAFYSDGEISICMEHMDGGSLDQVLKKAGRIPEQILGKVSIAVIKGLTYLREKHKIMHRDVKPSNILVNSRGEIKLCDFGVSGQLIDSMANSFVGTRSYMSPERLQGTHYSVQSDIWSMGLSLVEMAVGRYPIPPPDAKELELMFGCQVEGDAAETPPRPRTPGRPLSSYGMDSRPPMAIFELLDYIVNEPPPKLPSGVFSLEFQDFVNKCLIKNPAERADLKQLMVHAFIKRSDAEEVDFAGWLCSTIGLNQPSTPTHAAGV

[2] = biological target: Mitogen-activated protein kinase; ERK1/ERK2 (Homo sapiens, UniProt P27361+P28482); assay: Inhibition of RAF1- induced activation of MEK (unknown origin) signalling pathway assessed as reduction in ERK1/2 phosphorylation; assay type: protein assay
WiDr = assay: Antiproliferative activity against human WiDr cells assessed as reduction in cell viability incubated for 48 hrs by MTT assay; assay type: functional, cell-based
HT-1080 = assay: cells; settings: Homo sapiens, HT-1080, 48 h
Description: Antiproliferative activity against human HT-1080 cells assessed as reduction in cell viability incubated for 48 hrs by MTT assay

Tubulin = assay: Inhibition of tubulin polymerization (unknown origin); assay type: protein-complex assay, Homo sapiens
Tubulin (Homo sapiens) = Tubulin (Homo sapiens) (UniProt P68371+Q9H4B7+P0DPH7+P68366+Q13509+Q71U36+P04350+Q3ZCM7+P07437+P68363+Q9BQE3+Q6PEY2+Q13885+Q9BVA1+Q9BUF5); assay: Inhibition of [3H]-colchicine binding to tubulin (unknown origin) at 5 uM relative to control; assay type: protein-complex assay
HeLa = assay: Antiproliferative activity against human HeLa cells assessed as reduction in cell viability incubated for 72 hrs by MTT assay; assay type: functional, cell-based
HepG2 [3] = assay: Antiproliferative activity against human HepG2 cells assessed as reduction in cell viability incubated for 72 hrs by MTT assay; assay type: functional, cell-based; settings: HepG2, 72 h
OVCAR-3 = assay: Antiproliferative activity against human OVCAR-3 cells assessed as reduction in cell viability incubated for 72 hrs by MTT assay; assay type: functional, cell-based; settings: OVCAR-3, 72 h
NCI-H295R = assay: Antiproliferative activity against human NCI-H295R cells assessed as reduction in cell viability incubated for 72 hrs by MTT assay; assay type: functional, cell-based
MCF7 [4] = assay: Antiproliferative activity against human MCF7 cells assessed as reduction in cell growth incubated for 48 hrs by MTT assay; assay type: functional, cell-based; settings: MCF7, 48 h
ARO = assay: Antiproliferative activity against human ARO cells assessed as reduction in cell growth incubated for 48 hrs by MTT assay; assay type: functional, cell-based
A549 [5] = assay: Antiproliferative activity against human A549 cells assessed as reduction in cell growth incubated for 48 hrs by MTT assay; assay type: functional, cell-based; settings: A549, 48 h
HT-29 = assay: Antiproliferative activity against human HT-29 cells assessed as reduction in cell growth incubated for 72 hrs by MTT assay; assay type: functional, cell-based; settings: HT-29, 72 h
PT-45 = assay: Antiproliferative activity against human PT-45 cells assessed as reduction in cell growth incubated for 72 hrs by MTT assay; assay type: functional, cell-based; settings: PT-45, 72 h
OE19 = assay: Antiproliferative activity against human OE19 cells assessed as reduction in cell growth incubated for 72 hrs by MTT assay; assay type: functional, cell-based; settings: OE19, 72 h
OE33 = assay: Antiproliferative activity against human OE33 cells assessed as reduction in cell growth incubated for 72 hrs by MTT assay; assay type: functional, cell-based; settings: OE33, 72 h
A549 [6] = assay: Antiproliferative activity against human A549 cells assessed as reduction in cell growth incubated for 72 hrs by MTT assay; assay type: functional, cell-based; settings: A549, 72 h
MDA-MB-468 = assay: Antiproliferative activity against human MDA-MB-468 cells assessed as reduction in cell growth incubated for 72 hrs by MTT assay; assay type: functional, cell-based; settings: MDA-MB-468, 72 h
A-375 = assay: Antiproliferative activity against human A-375 cells assessed as reduction in cell growth incubated for 72 hrs by MTT assay; assay type: functional, cell-based; settings: A-375, 72 h
Jurkat = assay: Antiproliferative activity against human Jurkat cells assessed as reduction in cell growth incubated for 72 hrs by MTT assay; assay type: functional, cell-based
Influenza A virus = assay: Antiviral activity against Influenza A virus H1N1 infected in dog MDCK cells assessed as inhibition in virus-induced cytopathic effect incubated for 48 hrs by SRB assay; assay type: functional, organism-based
[7] = Inhibition of Influenza A virus H1N1 neuraminidase
MCF7 [8] = assay: cells; settings: Homo sapiens, MCF7, 72 h
Cytochrome P450 1A2 = Cytochrome P450 1A2 (Homo sapiens, UniProt P05177); assay: Inhibition of CYP1A2 (unknown origin); assay type: ADME
Cytochrome P450 1A2, sequence (P05177 whole entry): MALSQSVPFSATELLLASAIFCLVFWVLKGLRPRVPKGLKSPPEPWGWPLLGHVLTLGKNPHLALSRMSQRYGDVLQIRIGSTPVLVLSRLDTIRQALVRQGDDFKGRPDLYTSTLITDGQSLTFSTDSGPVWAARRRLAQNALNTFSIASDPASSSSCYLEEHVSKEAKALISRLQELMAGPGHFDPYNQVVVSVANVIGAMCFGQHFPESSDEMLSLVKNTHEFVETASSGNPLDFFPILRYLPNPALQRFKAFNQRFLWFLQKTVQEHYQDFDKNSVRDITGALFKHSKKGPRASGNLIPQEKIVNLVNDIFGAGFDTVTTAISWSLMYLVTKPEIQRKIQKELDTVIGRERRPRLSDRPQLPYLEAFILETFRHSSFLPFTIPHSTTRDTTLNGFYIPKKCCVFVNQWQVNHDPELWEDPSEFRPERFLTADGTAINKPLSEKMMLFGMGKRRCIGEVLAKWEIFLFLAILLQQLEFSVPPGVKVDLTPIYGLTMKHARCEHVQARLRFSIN

[9] = Inhibition of human LOX
Homo sapiens = organism: Homo sapiens; assay: Inhibition of human Lipoxygenase at 100 uM relative to control
[10] = test system: Human immunodeficiency virus 1; assay: Antiviral activity against HIV1 infected in H9 cells assessed as reduction in viral replication; assay type: functional; settings: Human immunodeficiency virus 1, H9; read-out: ED50 (the source's name)
HepG2 [11] = assay: Cytotoxicity against human HepG2 cells assessed as reduction in cell growth incubated for 48 hrs by MTT assay; assay type: functional, cell-based; settings: HepG2, 48 h
KB = assay: Cytotoxicity against human KB cells assessed as reduction in cell growth incubated for 48 hrs by MTT assay; assay type: functional, cell-based
[12] = biological target: Epidermal growth factor receptor (Homo sapiens, UniProt P00533); assay: Inhibition of EGFR (unknown origin)
Epidermal growth factor receptor, sequence (P00533 whole entry): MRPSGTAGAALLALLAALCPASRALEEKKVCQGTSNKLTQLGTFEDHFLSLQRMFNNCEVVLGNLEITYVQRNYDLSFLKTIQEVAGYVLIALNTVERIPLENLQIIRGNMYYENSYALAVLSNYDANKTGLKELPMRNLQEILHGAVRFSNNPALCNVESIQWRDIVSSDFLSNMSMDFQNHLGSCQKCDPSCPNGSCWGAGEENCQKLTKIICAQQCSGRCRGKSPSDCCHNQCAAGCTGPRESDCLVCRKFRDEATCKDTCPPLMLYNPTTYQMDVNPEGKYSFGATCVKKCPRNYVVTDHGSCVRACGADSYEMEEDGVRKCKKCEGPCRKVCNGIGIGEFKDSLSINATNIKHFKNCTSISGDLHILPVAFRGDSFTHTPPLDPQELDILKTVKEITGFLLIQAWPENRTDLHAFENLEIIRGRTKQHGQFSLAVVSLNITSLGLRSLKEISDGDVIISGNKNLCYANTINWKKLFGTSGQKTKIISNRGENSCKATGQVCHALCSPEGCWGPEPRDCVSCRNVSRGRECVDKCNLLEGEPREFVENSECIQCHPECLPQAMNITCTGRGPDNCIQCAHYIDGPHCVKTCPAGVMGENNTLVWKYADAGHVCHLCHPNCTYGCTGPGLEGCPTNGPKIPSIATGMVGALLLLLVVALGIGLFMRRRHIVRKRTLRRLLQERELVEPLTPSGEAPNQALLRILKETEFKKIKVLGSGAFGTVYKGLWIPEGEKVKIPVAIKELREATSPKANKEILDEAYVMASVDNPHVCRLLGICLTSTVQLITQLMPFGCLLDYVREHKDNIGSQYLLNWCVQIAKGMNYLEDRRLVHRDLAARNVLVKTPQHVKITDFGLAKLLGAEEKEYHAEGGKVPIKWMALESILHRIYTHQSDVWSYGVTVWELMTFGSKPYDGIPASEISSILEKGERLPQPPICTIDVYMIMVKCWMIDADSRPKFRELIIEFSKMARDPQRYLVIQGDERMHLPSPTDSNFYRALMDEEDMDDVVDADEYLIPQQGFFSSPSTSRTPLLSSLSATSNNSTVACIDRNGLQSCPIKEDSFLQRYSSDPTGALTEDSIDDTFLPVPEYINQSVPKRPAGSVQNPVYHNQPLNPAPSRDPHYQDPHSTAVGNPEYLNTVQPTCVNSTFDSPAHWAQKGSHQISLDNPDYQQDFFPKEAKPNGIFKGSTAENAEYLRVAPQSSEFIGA

HL-60 = assay: Antiproliferative activity against human HL-60 cells assessed as reduction in cell growth incubated for 48 hrs by MTT assay; assay type: functional, cell-based; settings: HL-60, 48 h
MV4-11 = assay: Antiproliferative activity against human MV4-11 cells assessed as reduction in cell growth incubated for 48 hrs by MTT assay; assay type: functional, cell-based; settings: MV4-11, 48 h
Staphylococcus aureus = assay: Antibacterial activity against Methicillin-resistant Staphylococcus aureus assessed as reduction in bacterial growth; assay type: functional
[13] = biological target: Quinolone resistance protein NorA (Staphylococcus aureus) (UniProt P0A0J7); assay: Inhibition of NorA efflux pump in Staphylococcus aureus SA1199B overexpressing NorA gene assessed as inhibition of EtBr efflux at 50 uM incubated for 20 mins by fluorometric assay
DU-145 [14] = assay: Antiproliferative activity against human DU-145 cells assessed as reduction in cell viability measured for 48 hrs by MTT assay; assay type: functional, cell-based; settings: DU-145, 48 h
DU-145 [15] = assay: Antitumor activity against human DU-145 cells xenografted in Balb/c nude mouse model assessed as tumor growth inhibition at 5 mg/kg, ip administered once daily for 16 days relative to control; assay type: functional; design: scale not given: the % may be the effect or the level left; settings: time 16 day
[16] = test system: Panel NCI-60 (60 carcinoma cell lines); assay: Antiproliferative activity against human Panel NCI-60 (60 carcinoma cell lines) assessed as reduction in cell viability; assay type: functional, cell-based

Work on COc1cccc(-c2cc(=O)c3ccccc3s2)c1N yielded an IC50 [1] of 4350 nM, an IC50 [2] of 13800 nM and an IC50 (WiDr) of 30500 nM. For the same molecule, the IC50 (HT-1080) was 29500 nM.
CCOC(=O)CCn1ccc2c3c(=O)cc(-c4ccccc4)[nH]c3ccc21 gave an IC50 (Tubulin) of 750 nM, an inhibition (Tubulin (Homo sapiens)) of 75% and an IC50 (HeLa) of 5 nM. It also gave an IC50 (HepG2 [3]) of 5 nM, an IC50 (OVCAR-3) of 5 nM and an IC50 (NCI-H295R) of 5 nM. It also gave an IC50 (MCF7 [4]) of 5 nM, an IC50 (ARO) of 5 nM and an IC50 (A549 [5]) of 5 nM. The IC50 (HT-29) was 5 nM, the IC50 (PT-45) was 5 nM and the IC50 (OE19) was 5 nM. It also gave an IC50 (OE33) of 5 nM, an IC50 (A549 [6]) of 5 nM and an IC50 (MDA-MB-468) of 5 nM. For the same molecule, the IC50 (A-375) was 5 nM and the IC50 (Jurkat) was 5 nM.
With COc1ccccc1-c1cc(=O)c2ccccc2[nH]1 the EC50 (Influenza A virus) was 4960 nM and the IC50 [7] was 1300 nM.
With COc1ccc(-c2cc(=O)c3cc(OC)c(OC)c(OC)c3o2)cc1 the IC50 (Tubulin) was 3000 nM, the inhibition (Tubulin (Homo sapiens)) was 43% and the IC50 (MCF7 [8]) was 1700 nM.
In the case of COc1ccc(-c2cc(=O)c3cc(OC)c4cccc(OC)c4c3[nH]2)cc1, the IC50 (Cytochrome P450 1A2) is reported as 4.1 nM.
Molecule Oc1ccc2nc(-c3ccccc3O)ccc2c1 has an IC50 [9] of 6500 nM and an inhibition (Homo sapiens) greater than 80%.
In the case of CC(=O)Oc1cc2sc(-c3ccccc3)cc(=O)c2cc1OC(C)=O, the EC50 [10] is reported as 0.65 µg/mL (≈ 1.83 µM).
For COc1cccc(-c2c[nH]c3c(F)cccc3c2=O)c1, the IC50 (HepG2 [11]) was 10 nM and the IC50 (KB) was 30 nM.
Molecule CCOC(=O)C1=C[C@@H](OC(CC)CC)[C@H](NC(C)=O)[C@@H](N)C1 [OSELTAMIVIR] has an EC50 (Influenza A virus) of 12700 nM and an IC50 [7] of 1900 nM.
In the case of COc1cc(O)c2c(O)c(-c3cccc(Cl)c3)cnc2c1, the IC50 [12] is reported as 40 nM.
Work on Oc1ccc(-c2ccc3ccccc3n2)c2ccccc12 yielded an IC50 [9] of 6500 nM and an inhibition (Homo sapiens) greater than 80%.
For COc1cccc(-c2c[nH]c3c(F)cc(F)cc3c2=O)c1, the IC50 (HepG2 [11]) was 50 nM and the IC50 (KB) was 60 nM.
Work on O=c1c(O)c(-c2ccc(O)c(O)c2)oc2cc(O)cc(O)c12 [QUERCETIN] yielded an EC50 (Influenza A virus) of 560 nM and an IC50 [7] of 8700 nM.
Work on COc1cc2c(cc1CC=C(C)C)C(=O)NC(c1ccc(O)cc1)N2 (configuration not stated) yielded an IC50 (HL-60) of 250 nM and an IC50 (MV4-11) of 500 nM.
Molecule COc1ccc(-c2oc3c(OC)c(OC)c(OC)c(O)c3c(=O)c2OC)cc1O has an IC50 (Tubulin) of 800 nM, an inhibition (Tubulin (Homo sapiens)) of 59% and an IC50 (MCF7 [8]) of 130 nM.
COc1ccc(-c2oc3cc(O)c(OC)c(O)c3c(=O)c2OC)cc1O [CENTAUREIDIN] showed an inhibition (Tubulin (Homo sapiens)) of 35% and an IC50 (MCF7 [8]) of 240 nM.
In the case of CCCOc1ccc(-c2cc(=O)c3ccccc3o2)cc1, the MIC (Staphylococcus aureus) is reported as 0.4 µg/mL (≈ 1.43 µM) and the inhibition [13] is reported as 33.9%.
O=C1C[C@H](c2cccc(Br)c2)Nc2ccccc21 gave an IC50 (DU-145 [14]) of 400 nM and an Activity (DU-145 [15]) of 60%.
For COc1cccc(-c2cc(=O)c3ccccc3o2)c1N, the IC50 [2] was 2950 nM, the IC50 (WiDr) was 10000 nM and the IC50 (HT-1080) was 8600 nM.
O=c1cc(-c2ccccc2)[nH]c2ccc3c(ccn3CC3CC3)c12 gave an IC50 (Tubulin) of 900 nM, an inhibition (Tubulin (Homo sapiens)) of 83% and an IC50 (OVCAR-3) of 20 nM. For the same molecule, the IC50 (NCI-H295R) was 20 nM, the IC50 (MCF7 [4]) was 20 nM and the IC50 (ARO) was 20 nM. It also gave an IC50 (HT-29) of 20 nM, an IC50 (OE19) of 20 nM and an IC50 (MDA-MB-468) of 20 nM. It also gave an IC50 (A-375) of 20 nM and an IC50 (Jurkat) of 20 nM.
Work on COc1cc(O)c2c(O)cc(-c3cccc(F)c3)nc2c1 yielded an IC50 [16] of 14500 nM.
